How the values were obtained:
[1] = system: spleen lymphocyte populations; experiment: T lymphocyte populations in spleen of tumor-challenged treated mice (CD4, CD8, Treg, Th1, Th17); assay type: in vivo; conditions: b6 mice
Experimental: To analyze the effects of this treatment on lymphocyte populations T to determine if there was an analogy to these clinical cases effect, the treatment effect level spleen lymphocyte populations CD4 and CD8 was evaluated also subpopulations CD4 CD25 foxp3 which realizes regulatory T cells, the CD4+population Tbet+which realizes THL population and the presence of CD4+population+Ror range which realizes TH17 population. Treatment with DPCP associated tumor challenge, induced an increase in Th1 population present in spleen (FIG. 3). The analysis of mice treated b6 at least 8 experiment allows the characterization that this population increased compared to control animals, however, not be significant. […] Value p=0.59.
As for the previous case, it was determined that the effect of treatment, this time with DNCB on lymphocyte populations T as in previous case Treg (FIG. 8), Th1 (FIGS. 9A and 9B) and Th17 (FIG. 10) in b6 mice. […] Analysis of at least 8 animals per treatment let characterize the increase in this population is significant.
Finally, for the case of animals treated with liter extract, it was observed that tumor level, two behaviors that may indicate a temporary dynamic behavior of cell populations response to tumor level. […] Furthermore, the bearings of the other populations are inconclusive (FIG. 17B, 17C and 17D).

[2] = system: B16 murine melanoma model; experiment: Transplanted B16 melanoma tumor model in B6 mice: tumor appearance and growth under topical treatment; assay type: in vivo
Experimental: The effect of topical treatment with 0.1% diphencyprone in mice of the B6 strain transplanted tumor model was evaluated bl6. For which initially the animals were challenged with live cells reaching generating detectable tumors between 10 days until day 20 post challenge (FIG. 1). Tumor growth has a linear behavior reaching a peak at day 7 post near challenge (FIG. 2, black circles). […] For both cases the analysis of linear growth curves of both has no significant difference when comparing the slopes. Value p=0.85.

[3] = treatment associated with tumor challenge, versus control animals

O=c1c(-c2ccccc2)c1-c1ccccc1 [DPCP, diphencyprone]
Th1 population (CD4+ Tbet+) present in spleen [1, 3]: increase
Th17 population (CD4+ Ror gamma+) present in spleen [1, 3]: showed no change
Treg population (CD4 CD25 foxp3) in spleen [1, 3]: showed no change
CD8 or CD4 populations associated with treatment ([1]; tumor challenge): No significant changes
overall effect of curative treatment on tumor model ([2]; mice, DPCP 0.1% to 1%): not have major effects
Tumor growth (time 0 = tumor mass detected) versus control animals treated with excipients ([2]; topical 0.1% DPCP, B6 mice): no difference
tumor appearance, average detection ([2]; topical 0.1% diphencyprone, B6 mice, post challenge, shift from 13 days, change not significant): 16 days

Reference: patent US20190321429A1, “TOPICAL NATURAL LITHRAEA CAUSTICA EXTRACT COMPOSITION AND USE THEREOF IN TUMOURS” (UNIVERSIDAD DE SANTIAGO DE CHILE, priority 2016, published 2019)
